We go through 11 molecules from patent publication US6365616B1, “Methimazole derivatives and tautomeric cyclic thiones to treat autoimmune diseases” (Sentron Medical, Inc., priority 1998, dated 2002).

Where two headings read alike, the source gives them in different places.

For test [1], the system named is HLA-DRα class II promoter. Briefly: Transient transfection CAT assay, HLA-DRα class II promoter chimeras in FRTL-5 cells. The class given is cell-based. From the text: Construction of the HLA-DR promoter constructs has also been described as have been their characteristics (Reimold A M, et al., ibid (1993)). Additional CAT constructs were constructed by PCR, using the HLA-DRα-CAT chimera containing −176 to +45 of 5′-flanking region as template and various primers (Montani V. et al., ibid (1998a,b)). For example, a plasmid containing −38 to +45 bp of the 5′-flanking region of HLA-DRα was constructed with the following primers: a 5′ primer with a 5′ Sph I restriction site, 5′-[…]-3′ and a 3′ primer, 5′-[…]-3′, with an Xba I restriction site (Montani V., et al., ibid (1998a,b)). The PCR products were purified by phenol-chloroform extraction, digested with Xba I and Sph I, purified from a 2% agarose gel with Jet Sorb (Genomed, Frederick, Md.), dephosphorylated with calf intestinal alkaline phosphatase (New England Biolabs, Beverly, Mass.), and religated (DNA ligation kit, Takara Biochemical, Inc., Berkeley, Calif.) into the pCAT-Basic Vector (Promega, Madison, Wis.) at the Sph I and Xba I sites as described (Reimold AM, et al., ibid (1993); Montani V., et al., ibid (1998a,b)).
To measure the promoter activity of MHC class II promoter constructs, transient transfections in FRTL-5 cells were performed, using one of the following procedures (Montani V., et al., ibid (1998a, b)). In one, FRTL-5 cells were cultivated in 6H medium to approximately 80% confluency, harvested, washed, and resuspended (1.5×10^7 cells/ml) in 0.85 ml electroporation buffer (272 mM sucrose, 7 mM sodium phosphate buffer pH 7.4, and 1 mM MgCl2). Plasmid DNA was added, 20 μg of the CAT chimera together with 2 μg pRSV-luciferase which is used to measure the efficiency of transfection. Cells were pulsed (330 V; capacitance 25 μfarad), plated (6×10^6 cells/10 cm dish), and cultured in 6H medium plus 5% calf serum supplemented or not with γ-IFN. At the times noted, cells were harvested for CAT and luciferase assays. The second procedure differed as follows. FRTL-5 cells were grown to 80% confluency in 6H medium, then maintained 6 days in 5H medium plus 5% calf serum. Cells were returned to 6H medium for 12 hours, transfected as described above, and maintained in 6H medium plus 5% calf serum for twelve hours. The medium was then changed to fresh 5H medium with 5% calf serum supplemented or not with γ-IFN. […] CAT activity was measured as described above and values were normalized to luciferase activity measured using the Promega (Madison, Wis.) assay system.
To test the effect of MMI, MMI derivatives or tautomeric cyclic thiones on γ-IFN-increased class II expression in FRTL-5 thyroid cells, the following procedure was used. Transient transfections with the −137 bp or −176 bp DRα-CAT chimeras were performed as described and treated with 100 U/ml γ-IFN for the noted times starting 12 hours after transfection. […]
In this experiment, like previous experiments, transient transfections were performed in FRTL-5 cells grown to 80% confluency in 6H medium, maintained 6 days in SH medium, and returned to 6H medium for 12 h before transfection as described. Twelve hours later, the medium was changed to fresh 5H medium, supplemented or not with 100 U/ml γ-IFN and/or 5 mM MMI. CAT activity was measured 48 h thereafter. […] Results are the mean ±SD of 3 separate experiments.

In test [2] the test system is HLA-DRα class II promoter. Put plainly: Luciferase assay, FRTL-5 cells stably transfected with HLA-DRα class II promoter-luciferase chimeras. The class given is cell-based. Conditions: 40 hours; for inhibition at 10 µM / inhibition at 100 µM / inhibition at 1000 µM: FRTL-5, read-out: % inhibition of IFN-increased p(−137)LUC class II promoter activity; for inhibition at 10 µM / inhibition at 100 µM / inhibition at 1000 µM / % inhibition of IFN-increased p(−137)LUC class II promoter activity / Luciferase activity +γ-IFN: 100 U/ml γ-interferon; for inhibition at 10 µM / inhibition at 100 µM / inhibition at 1000 µM / % inhibition of IFN-increased p(−137)LUC class II promoter activity: 6H medium. An excerpt: Similarly, the HLA DRα promoter constructs, p(−176)CAT and p(−137)CAT, inserted into the pCAT-Basic vector were released by restriction enzyme digestion, purified from agarose gel using QIAEX (QIAGEN, Chatsworth, Calif.), and used as templates for the construction by PCR of inserts with a 5′ flanking Mlul restriction site. The PCR products were purified by phenol-chloroform extraction, digested with MluI and XbaI, purified from agarose gels using QIAEX (QIAGEN, Chatsworth, Calif.) and ligated in the MluI-NheI site of the PGL-2 basic vector (PROMEGA, Madison, Wis.) using the DNA ligation kit from TAKARA biomedicals (TAKARA SHUZO Co.). JM1I9 bacterial competent cells (PROMEGA, Madison, Wis.) were transformed with the ligation reaction and plated in agar plates for 12 h at 37° C. The colonies were picked and screened with minipreps using QIAprep spin plasmid kit (QIAGEN, Chatsworth, Calif.) and restriction enzyme digestion. The plasmids were then purified by CsCI gradient centrifugation.
The PD1-PGL-2 basic constructs and the Class II-PGL-2 basic constructs were stably transfected in the FRTL-5 cells using a Lipofectamine (GIBCO, Life Technologies, Inc.) method. Near confluent cells in 6H medium were cotransfected with 20 μg of plasmid DNA and 2 μg of a pcDNA3neo or a pPUR selection vector (CLONTECH, Palo Alto, Calif.). After 24-48 hours, 400 μg/ml of G418 (GIBCO, Life Technologies, Inc.) or 10 μM of puromycin (SIGMA) were added to the medium. After 3 weeks the antibiotic-resistant colonies were cloned by limiting dilution and screened to determine their interferon sensitivity. At least 5 cell lines of each construct were isolated, each of whose activity was increased by adding 100 U/ml γ interferon to the medium of the cells. The following data (Tables 10-13) were obtained with one clone of each of the class I or class II-luciferase chimera, but were representative of at least three other clones of each.
Luciferase activity was measured using the Luciferase assay system (PROMEGA, Madison, Wis.). Briefly, treated or untreated cells from a 100 mm culture dish were washed with PBS, scraped and collected in microfuge tubes. The pellet was dissolved in 100 μl 1× reporter lysis buffer and incubated at room temperature for 15 minutes. Cells were frozen in dry ice plus ethanol and thawed in water at room temperature. After vortexing for 10 sec, tubes were centrifuged at 12,000×g for 5 min. Twenty μl of the supernatant were mixed with 100 μl of Luciferase assay reagent and immediately placed in a luminometer. Light was measured for a period of 10 sec after a 2 sec delay.
Treatment of cells, maintained either in the presence of TSH or its absence, with 100 U/ml interferon, increased class I and class II promoter activity (Table 10). In this experiment FRTL-5 cells were grown to 80% confluency in 6H medium with TSH then treated with 100 U/ml γ-interferon, 5 mM MMI or both together. Luciferase activity was measured after 40 hours as described. Several points are notable. First, interferon increases both class I and class II promoter activity in the stable transfectants. Second, MMI inhibits both interferon-increased class I and interferon-increased class II promoter activity.

Setting [3] is: 10 μM, 100 U/ml γ-interferon, 6H medium.
The mark [4] stands for this setting: 100 μM, 100 U/ml γ-interferon, 6H medium.
Where [5] appears, read: 0.5 mM, 100 U/ml γ-interferon, 6H medium.
The mark [6] stands for this setting: 5 mM, 100 U/ml γ-interferon, 6H medium.
The mark [7] stands for this setting: FRTL-5, 5 mM, 100 U/ml γ-interferon, 6H medium, read-out: % inhibition of IFN-increased p(−137)CAT class II promoter activity.
Setting [8] is: FRTL-5, 10 μM, 100 U/ml γ-interferon, 6H medium, read-out: % inhibition of IFN-increased p(−137)CAT class II promoter activity.
Where [9] appears, read: FRTL-5, 100 μM, 100 U/ml γ-interferon, 6H medium, read-out: % inhibition of IFN-increased p(−137)CAT class II promoter activity.
Where [10] appears, read: FRTL-5, 0.5 mM, 100 U/ml γ-interferon, 6H medium, read-out: % inhibition of IFN-increased p(−137)CAT class II promoter activity.
The mark [11] stands for this setting: FRTL-5, read-out: % inhibition of IFN-increased p(−137)CAT class II promoter activity.

In the case of `Sc1ncc[nH]1` [Compound 3, 2-Mercaptoimidazole], the “% inhibition of IFN-increased p(−137)CAT class II promoter activity” value in test [1] (setting [3]), in test [1] (setting [4]), in test [1] (setting [5]) and in test [1] (setting [6]) was “None” each time.
For the molecule `O=[N+]([O-])c1ccc2[nH]c(S)nc2c1` [Compound 5, 2-Mercapto-5-nitrobenzimidazole], in test [1] (setting [7]), the inhibition at 5000 µM is 39 ± 13%.
Turning to `Cn1c(-c2ccccc2)cnc1S` [Compound 10, 5-Phenylmethimazole], the inhibition at 10 µM in test [2] (10 μM) was found to be 43 ± 20%; in test [1] (setting [8]), 45 ± 17%. In addition, the inhibition at 100 µM is 80 ± 7% in test [2] (100 μM) and 88 ± 15% in test [1] (setting [9]). For the same molecule, the inhibition at 1000 µM in test [2] (1 mM) came out at 92 ± 10%. In test [1] (setting [10]), the inhibition at 500 µM stood at 95 ± 5%.
Consider `Sc1nc2ccccc2[nH]1` [Compound 4, 2-Mercaptobenzimidazole], for which, in test [1] (setting [11]), the inhibition at 10 µM is 0%, the inhibition at 100 µM is 0%, the inhibition at 500 µM amounted to 29 ± 12% and the inhibition at 5000 µM worked out at 73 ± 14%.
Turning to `Cc1ccc2[nH]c(S)nc2c1` [Compound 6, 2-Mercapto-5-methylbenzimidazole], the inhibition at 5000 µM in test [1] (setting [7]) stood at 44 ± 8%.
As for `Cc1cnc(S)n1C` [Compound 9, 5-Methylmethimazole], the inhibition at 10 µM in test [1] (setting [8]) worked out at 0%. The inhibition at 100 µM in test [1] (setting [9]) is 0%. Besides, in test [1] (setting [10]), the inhibition at 500 µM came out at 14 ± 12%. Moreover, the inhibition at 5000 µM in test [1] (setting [7]) was 44 ± 18%.
For the molecule `Cc1ncc([N+](=O)[O-])n1CCO` [Compound 2, 2-Methyl-5-nitro-1-imidazole ethanol], the inhibition at 10 µM in test [2] (10 μM) and in test [1] (setting [8]) was 0% in each case. The inhibition at 100 µM was found to be 7 ± 6% in test [2] (100 μM) and 0% in test [1] (setting [9]). In addition, in test [2] (1 mM), the inhibition at 1000 µM was 65 ± 9%. Also, the inhibition at 500 µM in test [1] (setting [10]) came to 55 ± 10%. In test [1] (setting [7]), the inhibition at 5000 µM worked out at 80 ± 4%.
For `Cn1ccn(C)c1=S` [Compound 8, N-Methylmethimazole], the “% inhibition of IFN-increased p(−137)LUC class II promoter activity” value in test [2] (10 μM) came out at 0%; in test [2] (100 μM) it was 43 ± 5%; in test [2] (1 mM), 84 ± 9%. For the same molecule, the “% inhibition of IFN-increased p(−137)CAT class II promoter activity” value in test [1] (setting [3]) is recorded as 0%; in test [1] (setting [4]), 43 ± 9%; in test [1] (setting [5]), 79 ± 11%; in test [1] (setting [6]), 88 ± 10%.
On to `CSc1nccn1C` [Compound 7, S-Methylmethimazole], for which the inhibition at 10 µM in test [2] (10 μM) and in test [1] (setting [8]) was 0% throughout. The results for the inhibition at 100 µM in test [2] (100 μM) and in test [1] (setting [9]) were 30 ± 7% and 20 ± 15%, respectively. Besides, the inhibition at 1000 µM in test [2] (1 mM) was determined as 68 ± 10%. In addition, the inhibition at 500 µM in test [1] (setting [10]) was determined as 75 ± 6%. The inhibition at 5000 µM in test [1] (setting [7]) is 84 ± 15%.
For the molecule `Cn1ccnc1S` [Compound 1, 1-Methylimidazole-2-thiol], the inhibition at 10 µM in test [2] (10 μM) and in test [1] (setting [8]) was 0% throughout. In addition, the inhibition at 100 µM in test [2] (100 μM) and in test [1] (setting [9]) was 0% throughout. For the same molecule, the inhibition at 1000 µM in test [2] (1 mM) amounted to 37 ± 10%. The “Luciferase activity + 5 mM MMI” value in test [2] (−137 HLA-DRα-LUC) stood at 103 ± 6 % Control; in test [2] (−167 HLA-DRα-LUC) it was 99 ± 5 % Control. Moreover, the inhibition at 500 µM in test [1] (setting [10]) was found to be 44 ± 6%. Further, in test [1] (setting [7]), the inhibition at 5000 µM was determined as 87 ± 9%.

B1: γ-IFN: rat recombinant γ-interferon, 100 U/ml, used to increase MHC class I and class II expression in FRTL-5 cells (protein, UniProt P01581 23-156, looked up)
Interferon gamma: QGTLIESLESLKNYFNSSSMDAMEGKSLLLDIWRNWQKDGNTKILESQIISFYLRLFEVLKDNQAISNNISVIESHLITNFFSNSKAKKDAFMSIAKFEVNNPQIQHKAVNELIRVIHQLSPESSLRKRKRSRC
On to B1, for which the “Luciferase activity +γ-IFN” value in test [2] (−137 HLA-DRα-LUC) is reported as 695 ± 42 % Control; in test [2] (−167 HLA-DRα-LUC) it was 790 ± 45 % Control.
